In PubChem BioAssay AID1845213 (Molecular Pharmacology Branch, DTP, NCI, 2023):
Where “and” joins values, the source holds several entries; their conditions need not be identical. Equal entries are not always repeated. Calls of active or inactive are those of the source. Rule for the calls: active = viability on the fitted dose curve at most 10% of control; inactive = the rest.

Tested on: NCI-H841 complex tumor spheroid viability
Assay: Anticancer human tumor NCI-H841 cell line growth inhibition;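 for IC50: spheroids exposed to compounds for 7 days before readout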;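 for viability, T/C: spheroids exposed to compounds for 7 days before readout; 100% = DMSO vehicle control wells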
Conditions: for IC50: curve of first compound; for viability, T/C: stronger effect = lower value
Method in brief: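 Complex tumor spheroids combined malignant cells with endothelial cells and mesenchymal stem cells. DNA-damaging drugs and DNA repair inhibitors were tested alone and in combination, at half-log dilutions down from clinical Cmax (top 10 microM if Cmax unknown), 0.25% DMSO final.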

How did the IC50 (second compound 1 µM) turn out when Cc1sc2c(c1C)C(c1ccc(Cl)cc1)=NC(CC(=O)Nc1ccc(O)cc1)c1nnc(C)n1-2 (stereo not drawn) + Cn1nnc2c(C(N)=O)ncn2c1=O was run?
Its IC50 is 375 nM.

And the IC50 (second compound 3.16 µM)?
The IC50 was 409 nM.

What about the IC50 (second compound 10 µM) of the same molecule?
The IC50 was 384 nM.

What about the IC50 (second compound 31.6 µM) of the same molecule?
Its IC50 is 361 nM.

And the IC50 (second compound 100 µM)?
Its IC50 is 267 nM.

And the viability, T/C (second compound 1 µM, first compound 0.00949 µM)?
The viability, T/C was 98.5%.

What about the viability, T/C (second compound 1 µM, first compound 0.03 µM) of the same molecule?
The viability, T/C was 101%.

And the viability, T/C (second compound 1 µM, first compound 0.0949 µM)?
Its viability, T/C is 74.8%.

And the viability, T/C (second compound 1 µM, first compound 0.3 µM)?
The viability, T/C was 59.8%.

And the viability, T/C (second compound 1 µM, first compound 0.949 µM)?
Its viability, T/C is 24.3%.

And the viability, T/C (second compound 1 µM, first compound 3 µM)?
Its viability, T/C is 6.54%.

What about the viability, T/C (second compound 3.16 µM, first compound 0.00949 µM) of the same molecule?
The viability, T/C was 105%.

What about the viability, T/C (second compound 3.16 µM, first compound 0.03 µM) of the same molecule?
The viability, T/C was 98%.

And the viability, T/C (second compound 3.16 µM, first compound 0.0949 µM)?
Its viability, T/C is 88.9%.

And the viability, T/C (second compound 3.16 µM, first compound 0.3 µM)?
Its viability, T/C is 59.1%.

What about the viability, T/C (second compound 3.16 µM, first compound 0.949 µM) of the same molecule?
Its viability, T/C is 24.7%.

And the viability, T/C (second compound 3.16 µM, first compound 3 µM)?
The viability, T/C was 5.5%.

And the viability, T/C (second compound 10 µM, first compound 0.00949 µM)?
The viability, T/C was 102%.

What about the outcome (second compound 10 µM, first compound 0.03 µM) of the same molecule?
Its outcome is “inactive”.

And the viability, T/C (second compound 10 µM, first compound 0.0949 µM)?
The viability, T/C was 87.8%.

And the viability, T/C (second compound 10 µM, first compound 0.3 µM)?
The viability, T/C was 61.5%.

And the viability, T/C (second compound 10 µM, first compound 0.949 µM)?
The viability, T/C was 14.4%.

What about the viability, T/C (second compound 10 µM, first compound 3 µM) of the same molecule?
Its viability, T/C is 4.47%.

What about the viability, T/C (second compound 31.6 µM, first compound 0.00949 µM) of the same molecule?
Its viability, T/C is 102%.

And the viability, T/C (second compound 31.6 µM, first compound 0.03 µM)?
The viability, T/C was 98.2%.

What about the outcome (second compound 31.6 µM, first compound 0.0949 µM) of the same molecule?
Its outcome is “inactive”.

And the viability, T/C (second compound 31.6 µM, first compound 0.3 µM)?
Its viability, T/C is 57.3%.

And the viability, T/C (second compound 31.6 µM, first compound 0.949 µM)?
The viability, T/C was 12.6%.

And the viability, T/C (second compound 31.6 µM, first compound 3 µM)?
The viability, T/C was 2.27%.

What about the viability, T/C (second compound 100 µM, first compound 0.00949 µM) of the same molecule?
The viability, T/C was 101%.

What about the viability, T/C (second compound 100 µM, first compound 0.03 µM) of the same molecule?
The viability, T/C was 99.8%.

And the viability, T/C (second compound 100 µM, first compound 0.0949 µM)?
Its viability, T/C is 82.6%.

And the viability, T/C (second compound 100 µM, first compound 0.3 µM)?
Its viability, T/C is 49%.

And the viability, T/C (second compound 100 µM, first compound 0.949 µM)?
Its viability, T/C is 5.34%.

What about the viability, T/C (second compound 100 µM, first compound 3 µM) of the same molecule?
Its viability, T/C is 1.69%.

For Cn1ncnc1[C@H]1c2n[nH]c(=O)c3cc(F)cc(c23)N[C@@H]1c1ccc(F)cc1 + CC[C@@]1(O)C(=O)OCc2c1cc1n(c2=O)Cc2cc3c(CN(C)C)c(O)ccc3nc2-1, which IC50 (second compound 0.003 µM) is on record?
The IC50 was under 9.49 nM.

What about the IC50 (second compound 0.00949 µM) of the same molecule?
Its IC50 is under 9.49 nM.

What about the IC50 (second compound 0.03 µM) of the same molecule?
Its IC50 is under 9.49 nM.

And the IC50 (second compound 0.0949 µM)?
The IC50 was under 9.49 nM.

What about the IC50 (second compound 0.3 µM) of the same molecule?
The IC50 was under 9.49 nM.

What about the viability, T/C (second compound 0.003 µM, first compound 0.00949 µM) of the same molecule?
The viability, T/C was 47.7%.

And the viability, T/C (second compound 0.003 µM, first compound 0.03 µM)?
The viability, T/C was 40.1%.

What about the viability, T/C (second compound 0.003 µM, first compound 0.0949 µM) of the same molecule?
The viability, T/C was 29.9%.

And the viability, T/C (second compound 0.003 µM, first compound 0.3 µM)?
Its viability, T/C is 8.52%.

And the viability, T/C (second compound 0.003 µM, first compound 0.949 µM)?
Its viability, T/C is 1.44%.

What about the viability, T/C (second compound 0.003 µM, first compound 3 µM) of the same molecule?
Its viability, T/C is 1.96%.

What about the viability, T/C (second compound 0.00949 µM, first compound 0.00949 µM) of the same molecule?
The viability, T/C was 5.87%.

What about the viability, T/C (second compound 0.00949 µM, first compound 0.03 µM) of the same molecule?
The viability, T/C was 2.75%.

And the viability, T/C (second compound 0.00949 µM, first compound 0.0949 µM)?
Its viability, T/C is 2.55%.

And the viability, T/C (second compound 0.00949 µM, first compound 0.3 µM)?
Its viability, T/C is 1.48%.

And the viability, T/C (second compound 0.00949 µM, first compound 0.949 µM)?
The viability, T/C was 1.52%.

And the viability, T/C (second compound 0.00949 µM, first compound 3 µM)?
Its viability, T/C is 2.21%.

What about the viability, T/C (second compound 0.03 µM, first compound 0.00949 µM) of the same molecule?
Its viability, T/C is 1.67%.

And the viability, T/C (second compound 0.03 µM, first compound 0.03 µM)?
The viability, T/C was 1.74%.

And the viability, T/C (second compound 0.03 µM, first compound 0.0949 µM)?
The viability, T/C was 1.39%.

What about the viability, T/C (second compound 0.03 µM, first compound 0.3 µM) of the same molecule?
Its viability, T/C is 1.4%.

What about the viability, T/C (second compound 0.03 µM, first compound 0.949 µM) of the same molecule?
The viability, T/C was 1.41%.

And the viability, T/C (second compound 0.03 µM, first compound 3 µM)?
Its viability, T/C is 1.81%.

What about the viability, T/C (second compound 0.0949 µM, first compound 0.00949 µM) of the same molecule?
Its viability, T/C is 1.86%.

What about the viability, T/C (second compound 0.0949 µM, first compound 0.03 µM) of the same molecule?
The viability, T/C was 1.68%.

And the viability, T/C (second compound 0.0949 µM, first compound 0.0949 µM)?
Its viability, T/C is 1.61%.

And the viability, T/C (second compound 0.0949 µM, first compound 0.3 µM)?
Its viability, T/C is 1.69%.

What about the viability, T/C (second compound 0.0949 µM, first compound 0.949 µM) of the same molecule?
The viability, T/C was 1.52%.

And the viability, T/C (second compound 0.0949 µM, first compound 3 µM)?
Its viability, T/C is 1.31%.

And the viability, T/C (second compound 0.3 µM, first compound 0.00949 µM)?
The viability, T/C was 0.97%.

What about the viability, T/C (second compound 0.3 µM, first compound 0.03 µM) of the same molecule?
Its viability, T/C is 0.99%.

What about the viability, T/C (second compound 0.3 µM, first compound 0.0949 µM) of the same molecule?
The viability, T/C was 0.94%.

What about the viability, T/C (second compound 0.3 µM, first compound 0.3 µM) of the same molecule?
The viability, T/C was 0.9%.

And the viability, T/C (second compound 0.3 µM, first compound 0.949 µM)?
Its viability, T/C is 0.63%.

And the viability, T/C (second compound 0.3 µM, first compound 3 µM)?
Its viability, T/C is 0.52%.

For COc1cc(C)[nH]c(=O)c1CN1CCc2c(Cl)cc(C(OC)C3COC3)c(Cl)c2C1=O (stereo not drawn), which viability, T/C (compound 0.0316 µM) is on record?
The viability, T/C was 91% and 78.5% and 86.2%.

What about the outcome (compound 0.1 µM) of the same molecule?
The outcome was “inactive”.

And the viability, T/C (compound 0.1 µM)?
The viability, T/C was 73.6% and 74.6%.

And the outcome (compound 0.316 µM)?
The outcome was “inactive”.

And the viability, T/C (compound 0.316 µM)?
The viability, T/C was 73.2% and 67.7%.

What about the viability, T/C (compound 1 µM) of the same molecule?
The viability, T/C was 65% and 42.6% and 61.8%.

What about the viability, T/C (compound 3.16 µM) of the same molecule?
Its viability, T/C is 60.1% and 38.4% and 55.5%.

And the viability, T/C (compound 10 µM)?
The viability, T/C was 54.7% and 35.1% and 51.2%.
